Earlier results, collected in patent publication US6346511B1, “Pharmaceutical composition comprising cyclosporin” (Panacea Biotec Limited, priority 1997, dated 2002).

System: normal epithelial tissue and Peyer's patch tissue of guinea pigs
Details: in vitro, compared to the commercially available drinking solution

## Choleic acid
  factor by which absorption of Cyclosporine was raised: 5-6
